What was measured:
AsPC-1 cells = assay: Annexin V assay; assay type: cell-based, human; conditions: 4 μg/mL, within 3 hours
Description: Annexin V assay. […] The cells were then rinsed with PBS and 500 μL of assay buffer once. Then, 200 μL of assay buffer, 4 μL of annexin-V FITC, and 20 μL of propidium iodide were added to each coverslip. The coverslip were then incubated at room temperature for 15 min in the dark and washed once with PBS. Cells were finally viewed under fluorescence microscope using a dual filter set for FITC and rhodamine, and pictures were taken using a Kodak DC 120 digital zoom camera (Eastman Kodak Company, Rochester, N.Y.).

caspase 7 = assay: Western blotting, caspase 7 in AsPC-1 cells; assay type: cell-based, human; conditions: 4 μg/mL, time-dependent (FIG. 3)
Description: (§1) Western blotting. Cells were seeded into flasks and cultured to 50% to 60% confluence for 24 hours. Cells were then placed in serum-free medium with or without 4 μg/mL frondoside A for periods of 0, 24, 48 and 72 hours respectively. Proteins were extracted from attached and floating cells in lysis buffer containing 4% SDS. Protein concentrations were determined using the bicinchoninic acid assay with BSA as standard. Western blotting was carried out. In brief, equal amounts of protein in the cell lysates were separated on 15% SDS-PAGE and the proteins were transferred onto nitrocellulose membranes. After blocking non-specific sites with dried milk, membranes were incubated with the appropriate dilution of primary antibody. Membranes were then incubated with a horseradish peroxidase conjugated secondary antibody. Proteins were detected using an enhanced chemiluminescence detection system.

caspase 9 = assay: Western blotting, caspase 9 in AsPC-1 cells; assay type: cell-based, human; conditions: 4 μg/mL, time-dependent (FIG. 3)
Description: as §1

Mcl-1 = assay: Western blotting, Mcl-1 in AsPC-1 cells; assay type: cell-based, human; conditions: 4 μg/mL, time-dependent (FIG. 4)
Description: as §1

p21 = assay: Western blotting, p21 in AsPC-1 cells; assay type: cell-based, human; conditions: 4 μg/mL, time-dependent (FIG. 5)
Description: as §1

p27 = assay: Western blotting, p27 in AsPC-1 cells; assay type: cell-based, human; conditions: 4 μg/mL (FIG. 5)
Description: as §1

[1] = test system: PC-3 (human prostate adenocarcinoma); assay: cells; conditions: for Percent Growth (Mean ± SEM, n = 2): 72-hour
Description: Test Substance and Concentration. Frondoside A (FAS) was dissolved in 100% DMSO and then diluted with sterile distilled water to obtain initial working solutions of 1000, 300, 100, 30, and 10 μM in 40% DMSO. […]
Cell Line and Culture Media. The tumor cell line PC-3 (human prostate adenocarcinoma), obtained from American Type Culture Collection (ATCC CRL-1435), was incubated in air atmosphere of 5% CO2 at 37° C. The culture medium used was F-12K Nutrient Mixture (Kaighn's Modification) with 3% fetal bovine serum, which was supplemented with 1% Antibiotic-Antimycotic.
Evaluation of anti-proliferation for test substances. Aliquots of 100 μl of cell suspension (about 2.5×10^3 cells/well) were placed in 96-well microtiter plates in an atmosphere of 5% CO2 at 37° C. […] Thus, the final concentration of DMSO was 0.4%. The Frondoside A was evaluated for possible inhibitory effects on cell proliferation at concentrations of 10, 3, 1, 0.3 and 0.1 μM. At the end of incubation, 20 μl of 90% alamarBlue reagent was added to each well for another 6-hour incubation before detection of cell viability by fluorescent intensity. Fluorescent intensity was measured using a Spectrafluor Plus plate reader with excitation at 530 nm and emission at 590 nm.
Determination of IC50, TGI and LC50. The measured results was calculated by the following formula: PG(%)=100%×(Mean Ftest−Mean Ftime0)/(Mean Fctrl−Mean Ftime0) If (Mean Ftest−Mean Ftime0)<0, then PG (%)=100%×(Mean Ftest−Mean Ftime0)/(Mean Ftime0−Mean Fblank) Where: • PG: percent growth • Mean Ftime0=The average of 2 measured fluorescent intensities of reduced alamarBlue at the time just before exposure of cells to the test substance. • Mean Ftest=The average of 2 measured fluorescent intensities of alamarBlue after 72-hour exposure of cells to the test substance. • Mean Fctrl=The average of 2 measured fluorescent intensities of alamarBlue after 72-hour incubation without the test substance. • Mean Fblank=The average of 2 measured fluorescent intensities of alamarBlue in medium without cells after 72-hour incubation.

[2] = test system: angiogenesis in the animal; assay: Treatment of animals, anti-angiogenic evaluation (Example 6); assay type: in vivo; conditions: contemplated; range of appropriate doses
Description: Frondoside A or B is evaluated for anti-angiogenic (e.g., for research, drug screening or therapeutic purposes) in live animals. Animals (e.g., having or modeling a disease characterized by unwanted angiogenesis) are treated with a range of appropriate doses of Frondoside A or B. Exemplary dosages and dosage schedules include, but are not limited to, those described herein.

COC1C(O)C(CO)OC(OC2C(O)COC(OC3C(C)OC(OC4C(OC5CCC6(C)C7CCC89C(=O)OC(C)(CCCC(C)C)C8C(OC(C)=O)CC9(C)C7=CCC6C5(C)C)OCC(OS(=O)(=O)[O-])C4O)C(OC4OCC(O)C(O)C4O)C3O)C2O)C1O.[Na+] [Frondoside A, 3-O-methyl-β-D-glucopyranosyl-(1→3)-β-D-xylopyranosyl-(1→4)-[β-D-xylopyranosyl-(1→2)]-β-D-quinovopyranosyl-(1→2)-4-O-sodium sulfate-β-D-xylopyranosyl-3-O-holost-7(8)-en-3β-ol-16β-O-acetate]
Annexin V binding (AsPC-1 cells): Annexin V binding was observed
activation of caspase 7 (caspase 7): reduction in the amounts of the respective procaspase forms
activation of caspase 9 (caspase 9): reduction in the amounts of the respective procaspase forms
expression of Mcl-1 (Mcl-1): decreased expression
expression of P21 (p21): markedly increased
expression of p27 (p27): not changed
Percent Growth (Mean ± SEM, n = 2) ([1]; PC-3, 0.1 μM): 98 ± 3%
Percent Growth (Mean ± SEM, n = 2) ([1]; PC-3, 0.3 μM): 103 ± 1%
Percent Growth (Mean ± SEM, n = 2) ([1]; PC-3, 1 μM): 98 ± 3%
Percent Growth (Mean ± SEM, n = 2) ([1]; PC-3, 3 μM): −98 ± 1%
Percent Growth (Mean ± SEM, n = 2) ([1]; PC-3, 10 μM): −97 ± 1%
TGI (Total Growth Inhibition) ([1]; PC-3, semi-quantitative, nonlinear regression): 1700 nM
growth inhibition of PC-3 relative to the vehicle treated control group ([1]; between 1 and 10 μM): significant growth inhibition
IC50 ([1]; read-out: IC50 (50% Inhibition Concentration), PC-3, semi-quantitative, nonlinear regression): 1500 nM
CC50 ([1]; read-out: LC50 (50% Lethal Concentration), PC-3, semi-quantitative, nonlinear regression): 2000 nM
angiogenesis in the animal [2]: inhibits angiogenesis
